From paper PMC3323469, “Comparative study of ^64Cu/NOTA-[D-Tyr^6,βAla^11,Thi^13,Nle^14]BBN(6-14) monomer and dimers for prostate cancer PET imaging” (EJNMMI Research, 2012) come the findings set out here.

Numbered stars: 1 amine (or outer) side, 2 acyl side, 3 side chain; on linkers, the order of the positions; unused ones are H or OH. Bridge positions count the residues as written; N and C are the ends. Square brackets hold non-standard residues; d marks the D form. Peptide text beside a SMILES is read from it. I, II: the chains in the order shown. * marks the point of attachment. NOTA = O=C(O)CN1CCN(CC(=O)O)CCN(CC(=O)*)CC1; X1 = O=C(CCC(=O)[*:2])NCCOCCOCC(=O)[*:1]; 2Thi = N[C@@H](Cc1cccs1)C(=O)O; Nle = CCCC[C@H](N)C(=O)O; AEEA = NCCOCCOCC(=O)O; βAla = NCCC(=O)O

In data set [1] the target is T1, GRPR (Mus musculus, UniProt P21729).
T1 construct: using the pancreas, a GRPR-rich tissue, as a target for specific receptor-mediated accumulation; from tissue; host or cells: Female Balb/c mice, in vivo; organs (pancreas and others) collected 30 min p.i
In words: Biodistribution in Balb/c mice (in vivo GRPR-targeting efficacy). Particulars: 64Cu-labeled peptide, 30 min p.i.; for Pancreas uptake: female Balb/c mice. As to the method: To determine the in vivo GRPR-targeting efficacy of labeled peptides, biodistribution of female Balb/c mice were realized with a minimum of 4 mice for each condition. Briefly, mice were injected with 370 to 740 kBq (10 to 20 μCi; 100 μL) of either ^64Cu/NOTA-monomer, ^64Cu/NOTA-dimer 1 or ^64Cu/NOTA-dimer 2 via the caudal vein. The animals were sacrificed with CO2 at 30 min post-injection [p.i.]. Organs of interest were then collected, weighed and measured in a gamma counter. The results were expressed as percentage of the injected dose per gram of tissue [%ID/g].

Data set [2] is described as follows: Solubility in physiological media. In kind it is physicochemical. The conditions noted are these: 64Cu-labeled peptide; DMF-PBS (10/90 v/v) used to solubilize. As to the method: Our cyclotron facility provides ^64Cu isotope on a routine basis for research purposes using a target system developed in collaboration with Advanced Cyclotron Systems Inc. (ACSI, Richmond, British Columbia, Canada). ^64Cu was prepared on an EBCO TR-19 cyclotron (EBCO Technologies, Vancouver, Canada) by the ^64Ni(p, n)^64Cu nuclear reaction using an enriched ^64Ni target electroplated on a rhodium disk. [^64Cu]CuCl2 was recovered from the target following the procedure of McCarthy et al. and converted to [^64Cu]copper[II] acetate by dissolving the [^64Cu]CuCl2 in ammonium acetate (0.1 M; pH 5.5). Peptides were labeled with ^64Cu following conditions optimized in our laboratory. Briefly, peptides (5 μg) were dissolved in a 0.1 M ammonium acetate buffer at pH 5.5 with [^64Cu]Cu(OAc)2 (8 to 10 mCi, 296 to 370 MBq) in a total volume of 250 to 300 μL, and then, the resulting solution was incubated at 100°C for 10 min. The labeled product was purified by HPLC using a C-18 column and a radio-detector. The amount of radiolabeled peptide was determined by the peak area of the tracer in the UV-chromatogram compared to the UV peak area of the standard unlabelled peptide (Figure 3). […] The peptide fraction was collected, evaporated and counted in a Capintec radioisotope calibrator (Capintec, Inc., NJ, USA) to calculate the specific activity of the product.

Data set [3] addresses GRPR (Homo sapiens, UniProt P30550). The experiment in a line: Competitive binding assay with [125I-Tyr4]bombesin on PC3 cells. The arrangement: host or cells: PC3 cells (whole, adherent cells in 24-well plates). Particulars: read-out: Ki (affinity for GRPR). The method, then: Competition assays were performed in 24-well plates using PC3 cells. The cells were cultured until near confluence, and the medium was replaced by 400 μL of reaction medium (RPMI complemented with 2 mg/mL BSA, 4.8 mg/mL HEPES, 1 U/mL penicillin G and 1 μg/mL streptomycin). For the assay, equal volumes of radioactive and non-radioactive ligands were added. […] The plates were incubated for 40 min at 37°C with agitation. After the incubation, the reaction medium was removed, and the cells were washed three times with PBS at room temperature. The cells were harvested and counted in a gamma counter (Cobra II auto-gamma counter, Packard, MN, USA). Experiments were realized three times in triplicate. Data were analyzed with GraphPad Prism 5 Software (GraphPad Software, San Diego, CA, USA) to determine the IC50. Finally, the Ki was determined using Cheng and Pursoff's formula [32].

Data set [4] is classed as in vitro ADME. The conditions noted are these: 24 h. The method, then:
Plasma and in vivo stability studies were realized as previously described by our group. Briefly, after peptide reconstitution, studies were carried out by incubating the tracers in mouse plasma for a period of 24 h and by injecting around 15 to 25 MBq (400 to 650 μCi; 100 μL) of ^64Cu/peptide to female Balb/c mice; 3 mice per peptide. After 24 h, a portion of the incubation mixtures in plasma or blood samples taken from the back paw were quenched with equal amounts of MeCN, chilled (4°C) and centrifuged, and the supernatant was assayed by HPLC. The stability was also determined by radio-TLC directly from plasma and blood samples without further handling; free ^64Cu and purified radiolabeled peptides were used as standards. The radio-TLCs were eluted on C-18-coated plastic sheets with 0.1 M sodium citrate buffer at pH 5.5 using an instant imager system for the radio-detection.

The next data set is described as follows: in vivo. Also on record: species or system Balb/c nude mice. Particulars: Balb/c nude, mouse, total radioactivity; for tissue to tissue ratio at 0.5 h / tissue to tissue ratio at 2 h: iv. The method, then: (§1) Tumor-bearing Balb/c nude mice were injected with 370 to 740 kBq (10 to 20 μCi; 100 μL) of ^64Cu/NOTA-monomer and ^64Cu/NOTA-dimer 2 via the caudal vein and sacrificed with CO2 at different periods of time after injection. Organs of interest were then collected and weighed. -Radioactivity was measured in a gamma counter. The blocking experiments were realized by co-injecting 0.1 μmol of non-radiolabeled peptide. The results were expressed as %ID/g with a minimum of 3 mice for each condition.

The test system of another data set is PC3 tumor. In words: in vivo. The arrangement: species or system Balb/c nude mice. Particulars: Balb/c nude, mouse, 2 h. As to the method: as §1

T1 sequence (P21729 whole entry): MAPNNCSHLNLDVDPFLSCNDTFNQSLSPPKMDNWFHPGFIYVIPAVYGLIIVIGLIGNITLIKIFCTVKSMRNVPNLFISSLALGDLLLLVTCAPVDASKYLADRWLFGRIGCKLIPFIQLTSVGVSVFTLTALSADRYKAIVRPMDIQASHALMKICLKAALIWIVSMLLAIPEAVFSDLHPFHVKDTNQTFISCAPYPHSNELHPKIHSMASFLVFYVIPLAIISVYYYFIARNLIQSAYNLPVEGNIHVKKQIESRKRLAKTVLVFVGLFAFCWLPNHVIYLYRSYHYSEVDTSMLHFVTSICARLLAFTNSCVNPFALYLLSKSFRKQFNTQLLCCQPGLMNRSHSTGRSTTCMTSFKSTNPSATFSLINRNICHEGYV
Sequence of GRPR (Homo sapiens, UniProt P30550) (P30550 whole entry): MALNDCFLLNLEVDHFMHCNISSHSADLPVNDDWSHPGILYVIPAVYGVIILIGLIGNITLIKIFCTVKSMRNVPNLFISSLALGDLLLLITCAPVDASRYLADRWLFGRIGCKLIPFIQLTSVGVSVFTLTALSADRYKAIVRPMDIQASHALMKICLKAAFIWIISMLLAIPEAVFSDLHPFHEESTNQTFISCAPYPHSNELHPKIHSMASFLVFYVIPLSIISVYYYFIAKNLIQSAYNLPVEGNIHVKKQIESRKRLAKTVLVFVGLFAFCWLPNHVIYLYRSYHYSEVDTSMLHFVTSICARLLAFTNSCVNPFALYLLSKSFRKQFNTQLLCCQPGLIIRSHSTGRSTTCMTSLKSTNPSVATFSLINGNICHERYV

A word on the Ki: it is the equilibrium dissociation constant of an inhibitor or competing ligand from its target. At GRPR [1], `CCCC[C@H](NC(=O)[C@H](Cc1cccs1)NC(=O)[C@H](Cc1c[nH]cn1)NC(=O)CCNC(=O)[C@@H](NC(=O)[C@H](C)NC(=O)[C@H](Cc1c[nH]c2ccccc12)NC(=O)[C@H](CCC(N)=O)NC(=O)[C@@H](Cc1ccc(O)cc1)NC(=O)CCC(=O)NCCOCCOCC(=O)N[C@@H](CCCCNC(=O)CN1CCN(CC(=O)O)CCN(CC(=O)O)CC1)C(=O)NCC(=O)N[C@H](Cc1ccc(O)cc1)C(=O)N[C@@H](CCC(N)=O)C(=O)N[C@@H](Cc1c[nH]c2ccccc12)C(=O)N[C@@H](C)C(=O)N[C@H](C(=O)NCCC(=O)N[C@@H](Cc1c[nH]cn1)C(=O)N[C@@H](Cc1cccs1)C(=O)N[C@@H](CCCC)C(N)=O)C(C)C)C(C)C)C(N)=O` [NOTA-dimer 1, BBN(6-14)-Suc-PEG-Lys(NOTA)-Gly-BBN(6-14)] (I: K(NOTA)G[dY]QWAV[βAla]H[2Thi][Nle]-NH2 / II: [dY]QWAV[βAla]H[2Thi][Nle]-NH2; linker I:N-II:N via X1) yielded a Pancreas uptake of 15.6 ± 2.0 %ID/g. In addition, in data set [2], the “Solubility in physiological media” value is listed as “poorly soluble”. Besides, the Ki on GRPR [3] worked out at 2 ± 1.59 nM.

For the molecule `CCCC[C@H](NC(=O)[C@H](Cc1cccs1)NC(=O)[C@H](Cc1c[nH]cn1)NC(=O)CCNC(=O)[C@@H](NC(=O)[C@H](C)NC(=O)[C@H](Cc1c[nH]c2ccccc12)NC(=O)[C@H](CCC(N)=O)NC(=O)[C@@H](Cc1ccc(O)cc1)NC(=O)CCC(=O)NCCOCCOCC(=O)N[C@@H](CCCCNC(=O)CN1CCN(CC(=O)O)CCN(CC(=O)O)CC1)C(=O)NCCOCCOCC(=O)NCC(=O)N[C@H](Cc1ccc(O)cc1)C(=O)N[C@@H](CCC(N)=O)C(=O)N[C@@H](Cc1c[nH]c2ccccc12)C(=O)N[C@@H](C)C(=O)N[C@H](C(=O)NCCC(=O)N[C@@H](Cc1c[nH]cn1)C(=O)N[C@@H](Cc1cccs1)C(=O)N[C@@H](CCCC)C(N)=O)C(C)C)C(C)C)C(N)=O` [NOTA-dimer 2, BBN(6-14)-Suc-PEG-Lys(NOTA)-PEG-Gly-BBN(6-14)] (I: K(NOTA)[AEEA]G[dY]QWAV[βAla]H[2Thi][Nle]-NH2 / II: [dY]QWAV[βAla]H[2Thi][Nle]-NH2; linker I:N-II:N via X1), the “Fold higher pancreas uptake than NOTA-monomer and NOTA-dimer 1” value at GRPR [1] (Balb/c mice) stood at 3.6 fold. The same molecule had a Pancreas uptake on GRPR [1] of 57 ± 16 %ID/g. Further, in data set [2], the “Solubility in physiological media” value is recorded as “poorly soluble”. On GRPR [3], the Ki worked out at 1.76 ± 1.3 nM.

For orientation: tissue uptake means the percentage of the injected dose found per gram of tissue. On to `CCCC[C@H](NC(=O)[C@H](Cc1cccs1)NC(=O)[C@H](Cc1c[nH]cn1)NC(=O)CCNC(=O)[C@@H](NC(=O)[C@H](C)NC(=O)[C@H](Cc1c[nH]c2ccccc12)NC(=O)[C@H](CCC(N)=O)NC(=O)[C@@H](Cc1ccc(O)cc1)NC(=O)CCC(=O)NCCOCCOCC(=O)N[C@@H](CCCCNC(=O)CN1CCN(CC(=O)O)CCN(CC(=O)O)CC1)C(=O)NCCOCCOCC(=O)NCC(=O)N[C@H](Cc1ccc(O)cc1)C(=O)N[C@@H](CCC(N)=O)C(=O)N[C@@H](Cc1c[nH]c2ccccc12)C(=O)N[C@@H](C)C(=O)N[C@H](C(=O)NCCC(=O)N[C@@H](Cc1c[nH]cn1)C(=O)N[C@@H](Cc1cccs1)C(=O)N[C@@H](CCCC)C(N)=O)C(C)C)C(C)C)C(N)=O` [^64Cu/NOTA-dimer 2, metal not drawn] (I: K(NOTA)[AEEA]G[dY]QWAV[βAla]H[2Thi][Nle]-NH2 / II: [dY]QWAV[βAla]H[2Thi][Nle]-NH2; linker I:N-II:N via X1), for which the “Stability in mouse plasma” value in data set [4] is “stable”. Further, the tissue to tissue ratio at 0.5 h in the data set “in vivo” (Tumor/blood ratio) stood at 1.39 ± 0.3; in the data set “in vivo” (Tumor/kidney ratio), 0.28 ± 0.09; in “in vivo” (Tumor/liver ratio), 0.1 ± 0.01; in the data set “in vivo” (Tumor/muscle ratio) it was 3.95 ± 1.98; in the data set “in vivo” (Tumor/pancreas ratio), 0.89 ± 0.11. Also, the tissue to tissue ratio at 2 h is 4.09 ± 1.79 in the data set “in vivo” (Tumor/blood ratio), 0.22 ± 0.11 in “in vivo” (Tumor/kidney ratio), 0.22 ± 0.07 in “in vivo” (Tumor/liver ratio) and 4.46 ± 1.86 in “in vivo” (Tumor/muscle ratio). For the same molecule, the tissue uptake at 0.5 h was 9.23 ± 5.01 %ID/g in “in vivo” (Biodistribution Adrenal); 3.13 ± 0.67 %ID/g in “in vivo” (Biodistribution Blood); 0.78 ± 0.21 %ID/g in “in vivo” (Biodistribution Bone); 0.38 ± 0.06 %ID/g in “in vivo” (Biodistribution Brain); 1.86 ± 0.81 %ID/g in the data set “in vivo” (Biodistribution Fat); 4.42 ± 1.59 %ID/g in the data set “in vivo” (Biodistribution Heart). The tissue uptake at 0.5 h was 17 ± 6.24 %ID/g in “in vivo” (Biodistribution Kidney); 41.8 ± 5.58 %ID/g in the data set “in vivo” (Biodistribution Liver); 7.22 ± 2.73 %ID/g in “in vivo” (Biodistribution Lungs); 1.59 ± 1.16 %ID/g in the data set “in vivo” (Biodistribution Muscle); 4.6 ± 0.57 %ID/g in the data set “in vivo” (Biodistribution Pancreas); 5.27 ± 1.27 %ID/g in the data set “in vivo” (Biodistribution Plasma). The tissue uptake at 0.5 h worked out at 5.31 ± 1.43 %ID/g in “in vivo” (Biodistribution Spleen) and 3.95 ± 0.26 %ID/g in the data set “in vivo” (Biodistribution Tumor). Also, the tissue uptake at 2 h in “in vivo” (Biodistribution Bone) is 0.83 ± 0.19 %ID/g; in “in vivo” (Biodistribution Brain), 0.22 ± 0.05 %ID/g; in “in vivo” (Biodistribution Heart) it was 2.68 ± 0.13 %ID/g; in the data set “in vivo” (Biodistribution Kidney), 26.4 ± 8.13 %ID/g; in “in vivo” (Biodistribution Liver), 23.1 ± 2.36 %ID/g; in the data set “in vivo” (Biodistribution Muscle), 1.13 ± 0.62 %ID/g. The tissue uptake at 2 h in the data set “in vivo” (Biodistribution Spleen) is 5.5 ± 2.61 %ID/g; in “in vivo” (Biodistribution Tumor), 6.28 ± 2.87 %ID/g. Moreover, in the data set with PC3 tumor, the “Biodistribution Adrenal” value was 11.56 ± 4.91 %ID/g. For the same molecule, in the data set on PC3 tumor, the “Biodistribution Blood” value turned out to be 1.34 ± 0.15 %ID/g. Further, the “Biodistribution Fat” value in the data set with PC3 tumor is reported as 0.68 ± 0.61 %ID/g. The “Biodistribution Lungs” value with PC3 tumor is 5.07 ± 1.58 %ID/g. In addition, in the data set with PC3 tumor, the “Biodistribution Pancreas” value is given as 13.35 ± 7.38 %ID/g. For the same molecule, in the data set on PC3 tumor, the “Biodistribution Plasma” value was 2.45 ± 0.27 %ID/g. For the same molecule, in the data set with PC3 tumor (iv), the Tumor/pancreas ratio is recorded as 0.36 ± 0.09.
